According to publication PMC5617326, “Structural Basis of Catalysis in the Bacterial Monoterpene Synthases Linalool Synthase and 1,8-Cineole Synthase” (ACS Catalysis, 2017):

Tests used:
[1] = molecular target: T1, bLinS; linalool synthase; linalool/nerolidol synthase (Streptomyces clavuligerus, UniProt D5SL78); experiment: X-ray crystal structure, co-crystal; EPR with Mn2+; format: binding; conditions: 1.82 A; FGPP in monomer A only; one Mg2+; noncatalytic mode suggested; pH 7.5
T1 construct: gene SCLAV_p1185; full-length codon-optimized gene in pETM11, N-terminal 6xHis tag and TEV site, tag cleaved; E. coli ArcticExpress (DE3); ~330 residues; two molecules in asymmetric unit
T1 sequence (D5SL78 1-329): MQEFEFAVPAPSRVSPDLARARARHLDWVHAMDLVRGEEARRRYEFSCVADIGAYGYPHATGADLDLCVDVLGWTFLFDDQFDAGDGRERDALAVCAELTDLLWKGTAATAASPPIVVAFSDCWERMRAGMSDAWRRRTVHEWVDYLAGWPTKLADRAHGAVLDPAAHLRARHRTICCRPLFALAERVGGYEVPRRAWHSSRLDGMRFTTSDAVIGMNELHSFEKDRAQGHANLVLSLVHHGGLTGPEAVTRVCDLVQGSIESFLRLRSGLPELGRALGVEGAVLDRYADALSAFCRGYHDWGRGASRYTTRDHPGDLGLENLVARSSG

[2] = molecular target: T2, bCinS; 1,8-cineole synthase (Streptomyces clavuligerus, UniProt B5GMG2); experiment: X-ray crystal structure, FGPP soaked into FNPP co-crystal; EPR with Mn2+; format: binding; conditions: 1.51 A; partial exchange, mixed FNPP/FGPP occupancy; three Mg2+ (third partly occupied); active site
T2 construct: gene cnsA; full-length codon-optimized gene in pETM11, N-terminal 6xHis tag and TEV site, tag cleaved; E. coli ArcticExpress (DE3); ~330 residues; dimer

[3] = molecular target: T1, bLinS; linalool synthase; linalool/nerolidol synthase; experiment: product analysis by GC-MS in engineered E. coli; chiral GC; format: cell-based; conditions: host-made FPP in E. coli expressing bLinS; product trans-nerolidol

T2 sequence (B5GMG2 whole entry): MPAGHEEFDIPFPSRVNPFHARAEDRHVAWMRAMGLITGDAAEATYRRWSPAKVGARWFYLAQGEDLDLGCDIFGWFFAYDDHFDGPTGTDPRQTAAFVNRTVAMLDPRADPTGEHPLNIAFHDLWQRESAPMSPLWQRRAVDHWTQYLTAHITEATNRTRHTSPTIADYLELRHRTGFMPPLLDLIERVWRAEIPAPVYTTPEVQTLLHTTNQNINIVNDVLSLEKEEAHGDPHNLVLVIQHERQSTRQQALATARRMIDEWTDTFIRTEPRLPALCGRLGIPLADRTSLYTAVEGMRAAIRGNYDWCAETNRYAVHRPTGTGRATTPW

Row | SMILES | X-ray crystal structure, co-crystal; EPR with Mn2+ [1] | X-ray crystal structure, FGPP soaked into FNPP co-crystal; EPR with Mn2+ [2] | product analysis by GC-MS in engineered E. coli; chiral GC [3]
1 | CC(C)=CCC/C(C)=C(\F)COP(=O)(O)OP(=O)(O)O [FGPP, 2-fluorogeranyl pyrophosphate] | clear electron density corresponding to FGPP is only present in monomer A | Soaking of the bCinS-FNPP crystals with FGPP led to the partial exchange | 
2 | CC(C)=CCC/C(C)=C/CC/C(C)=C/COP(=O)(O)OP(=O)(O)O [FPP, farnesyl pyrophosphate] |  |  | Strains containing bLinS were able to convert FPP to nerolidol
